For this assay, the target named is T1, LRRK2 kinase in SH-SY5Y cells over-expressing recombinant full length LRRK2 (Homo sapiens, UniProt Q5S007).
T1 construct: A BacMam virus expressing full length recombinant LRRK2 was purchased from Invitrogen; host or cells: SH-SY5Y human neuroblastoma cells transduced with BacMam LRRK2 virus
The assay is described as follows: Recombinant cellular LRRK2 AlphaScreen assay (LRRK2 Ser935 phosphorylation). Type of assay: cell-based. The note with it: 60 min. The text has this:
b. Recombinant Cellular LRRK2 AlphaScreen Assay
To determine the activity of compounds against LRRK2 kinase in cells, the observed LRRK2 kinase-dependent modulation of LRRK2 Ser 935 phosphorylation (Dzamko et al., 2010, Biochem. J. 430: 405-413) was utilized to develop a quantitative 384 well plate-based immunoassay of LRRK2 Ser935 phosphorylation in the human neuroblastoma cell line SH-SY5Y, engineered to over-express recombinant full length LRRK2 protein.
A BacMam virus expressing full length recombinant LRRK2 was purchased from Invitrogen and amplified by inoculation of SF-9 cells at MOI 0.3 for 4-5 days in Sf-900 III SFM medium supplemented with 3% fetal bovine serum. Infected cell cultures were then centrifuged at 2000 g for 20 minutes, viral supernatant titer determined by anti-gp64 plaque assay and stored at 4° C.
Affinity-purified anti-phospho LRRK2 Ser935 sheep polyclonal antibody (Dzamko et al., 2010, Biochem. J. 430: 405-413) was biotinylated by standard methods (PerkinElmer). Anti-LRRK2 rabbit polyclonal antibody was purchased from Novus Biologicals. AlphaScreen Protein A IgG Kit (including acceptor and donor beads) was purchased from Perkin Elmer.
SH-SY5Y cells were grown in DMEM/F12 medium with 10% dialysed fetal bovine serum and harvested by treatment with 0.5% trypsin-EDTA for 5 minutes at 37° C. followed by centrifugation at 1000 rpm for 4 minutes. The cell pellet was resuspended in Opti-MEM reduced serum media (Invitrogen) at 200,000 cells/ml and mixed with the BacMam LRRK2 virus at M01=50. 50 μl cell solutions were then dispensed to each well of a 384-well plate and incubated at 37° C., 5% CO2 for 24 hours.
Compounds were prepared at 10× final assay concentration as 11 point 1 in 4 serial I dilutions in Opti-MEM reduced serum medium (Invitrogen 31985070) containing 1% DMSO. On the day of assay, 5.5 μl of the compound solutions were transferred from the compound plate to the cell assay plate to achieve a top final assay concentration of 10 uM. DMSO (0.1% final assay concentration) was added to column 6 and 2-(benzyloxy)-5-methyl-4-(1-methyl-1H-pyrazol-4-yl)-N-(pyridin-3-yl)benzamide (2 μM final assay concentration) was added to column 18 to serve as 0% and 100% inhibition controls, respectively.
Cells were incubated at 37° C., 5% CO2 for 60 minutes. The medium was then removed and cells lysed by addition of 20 μl of cell lysis buffer (Cell Signaling Technology) and incubation at 4° C. for 20 minutes. 10 μl of antibody/acceptor bead mix [(1/1000 biotinylated-pS935 LRRK2 antibody, 1/1000 total-LRRK2 antibody, 1/100 Acceptor beads in AlphaScreen detection buffer (25 mM Hepes (pH 7.4), 0.5% Triton X-100, 1 mg/ml Dextran 500 and 0.1% BSA)] was then added to each well and plates incubated for 2 hours at ambient temperature in the dark. 10 μl of donor beads solution (1/33.3 donor beads in AlphaScreen detection buffer) was then added to each well. Following incubation for a further 2 hours at ambient temperature in the dark, plates were read on an EnVision™ plate reader at emission 520-620 nm with excitation 680 nm. Dose response curve data was based on a sigmoidal dose-response model.

T1 sequence (Q5S007 whole entry): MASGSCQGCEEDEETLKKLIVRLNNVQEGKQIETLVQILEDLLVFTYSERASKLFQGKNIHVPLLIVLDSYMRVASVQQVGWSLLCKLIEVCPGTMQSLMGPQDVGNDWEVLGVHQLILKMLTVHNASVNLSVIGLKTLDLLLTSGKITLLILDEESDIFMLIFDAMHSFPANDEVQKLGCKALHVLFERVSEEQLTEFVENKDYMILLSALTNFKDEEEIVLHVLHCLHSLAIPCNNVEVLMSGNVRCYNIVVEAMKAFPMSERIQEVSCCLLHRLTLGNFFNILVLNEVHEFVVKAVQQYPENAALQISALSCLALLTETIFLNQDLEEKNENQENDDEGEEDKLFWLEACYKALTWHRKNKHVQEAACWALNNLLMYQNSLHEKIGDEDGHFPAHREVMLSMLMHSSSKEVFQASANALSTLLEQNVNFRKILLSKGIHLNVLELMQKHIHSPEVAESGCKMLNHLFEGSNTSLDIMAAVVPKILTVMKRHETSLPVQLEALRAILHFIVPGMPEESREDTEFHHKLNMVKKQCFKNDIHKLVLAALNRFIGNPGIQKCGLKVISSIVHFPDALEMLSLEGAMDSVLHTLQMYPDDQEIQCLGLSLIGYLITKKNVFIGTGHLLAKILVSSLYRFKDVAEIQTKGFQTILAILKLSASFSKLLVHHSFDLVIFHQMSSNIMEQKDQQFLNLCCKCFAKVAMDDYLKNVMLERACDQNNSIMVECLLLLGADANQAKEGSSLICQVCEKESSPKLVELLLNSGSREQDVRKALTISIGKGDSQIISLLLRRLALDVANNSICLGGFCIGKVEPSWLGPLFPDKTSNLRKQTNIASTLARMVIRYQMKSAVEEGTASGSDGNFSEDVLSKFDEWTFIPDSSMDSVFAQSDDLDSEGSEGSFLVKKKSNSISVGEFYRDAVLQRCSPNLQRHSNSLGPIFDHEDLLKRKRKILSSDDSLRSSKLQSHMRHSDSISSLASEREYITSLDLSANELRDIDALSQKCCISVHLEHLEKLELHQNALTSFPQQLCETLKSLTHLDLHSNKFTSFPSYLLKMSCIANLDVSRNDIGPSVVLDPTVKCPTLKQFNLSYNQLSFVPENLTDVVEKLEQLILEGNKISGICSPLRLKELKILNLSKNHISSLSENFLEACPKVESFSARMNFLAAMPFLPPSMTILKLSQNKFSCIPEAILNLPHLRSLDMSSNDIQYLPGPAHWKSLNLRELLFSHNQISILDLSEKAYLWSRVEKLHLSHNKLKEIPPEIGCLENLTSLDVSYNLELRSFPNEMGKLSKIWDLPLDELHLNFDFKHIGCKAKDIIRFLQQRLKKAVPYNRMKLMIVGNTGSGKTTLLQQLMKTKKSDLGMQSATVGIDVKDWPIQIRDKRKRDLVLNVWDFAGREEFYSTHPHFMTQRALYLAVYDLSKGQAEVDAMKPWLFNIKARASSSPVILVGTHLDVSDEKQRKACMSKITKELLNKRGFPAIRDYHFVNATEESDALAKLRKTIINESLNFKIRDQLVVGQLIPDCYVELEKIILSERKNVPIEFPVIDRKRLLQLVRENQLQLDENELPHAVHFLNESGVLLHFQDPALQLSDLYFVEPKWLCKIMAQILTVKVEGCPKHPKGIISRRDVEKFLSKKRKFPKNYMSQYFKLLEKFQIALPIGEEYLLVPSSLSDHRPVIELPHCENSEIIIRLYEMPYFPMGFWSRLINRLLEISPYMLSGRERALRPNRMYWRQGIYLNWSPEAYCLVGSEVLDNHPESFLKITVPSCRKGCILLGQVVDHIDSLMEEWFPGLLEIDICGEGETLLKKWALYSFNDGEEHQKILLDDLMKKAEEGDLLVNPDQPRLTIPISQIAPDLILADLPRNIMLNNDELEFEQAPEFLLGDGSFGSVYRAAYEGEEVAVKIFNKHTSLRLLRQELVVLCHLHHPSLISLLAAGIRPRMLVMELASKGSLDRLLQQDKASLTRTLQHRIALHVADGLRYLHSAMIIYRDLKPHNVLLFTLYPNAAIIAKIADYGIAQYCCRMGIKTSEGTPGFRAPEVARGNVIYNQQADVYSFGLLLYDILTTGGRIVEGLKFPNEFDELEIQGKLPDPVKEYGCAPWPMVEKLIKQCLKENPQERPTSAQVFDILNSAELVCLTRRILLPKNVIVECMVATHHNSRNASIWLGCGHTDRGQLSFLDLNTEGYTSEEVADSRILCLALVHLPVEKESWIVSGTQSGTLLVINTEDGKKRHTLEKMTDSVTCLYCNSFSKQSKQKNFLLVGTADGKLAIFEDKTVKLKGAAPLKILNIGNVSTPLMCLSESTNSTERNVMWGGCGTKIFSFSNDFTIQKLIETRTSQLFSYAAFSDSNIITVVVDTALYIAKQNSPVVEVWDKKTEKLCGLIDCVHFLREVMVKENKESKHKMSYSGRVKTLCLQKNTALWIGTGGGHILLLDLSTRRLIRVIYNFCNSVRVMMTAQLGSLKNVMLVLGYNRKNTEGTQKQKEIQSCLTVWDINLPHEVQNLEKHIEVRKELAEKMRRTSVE

For orientation: IC50 means the concentration at which inhibition is half-maximal. For `Cc1c2c(nn1C1CCCOC1)OCCCNc1nc(ncc1C(F)(F)F)N2` (single isomer, unassigned) [E132, 4-methyl-5-(oxan-3-yl)-14-(trifluoromethyl)-8-oxa-2,5,6,12,16,17-hexaazatricyclo[11.3.1.0^3,7]heptadeca-1(16),3,6,13(17),14-pentaene], the IC50 was not above 100 nM.
Next, `COC1COc2nc(ncc2Cl)Nc2c(nn(C3CCOCC3)c2C)OC1` (single isomer, unassigned) [E328, 14-Chloro-10-methoxy-4-methyl-5-(oxan-4-yl)-8,12-dioxa-2,5,6,16,17-pentaazatricyclo[11.3.1.0^3,7]heptadeca-1(16),3,6,13(17),14-pentaene]: not above 100 nM; `COCCN1c2nc(ncc2Cl)Nc2c(nn(C3CCOCC3)c2C)OCC[C@H]1C` [E400, (11R)-14-Chloro-12-(2-methoxyethyl)-4,11-dimethyl-5-(oxan-4-yl)-8-oxa-2,5,6,12,16,17-hexaazatricyclo[11.3.1.0^3,7]heptadeca-1(16),3,6,13(17),14-pentaene]: not above 100 nM.
Next, `Cc1c2c(nn1C1CCC(C(F)(F)F)CC1)OCCCNc1nc(ncc1Cl)N2` (single isomer, unassigned) [E276, 14-Chloro-4-methyl-5-[4-(trifluoromethyl)cyclohexyl]-8-oxa-2,5,6,12,16,17-hexaazatricyclo[11.3.1.0^3,7] heptadeca-1(16),3,6,13(17),14-pentaene]: not above 100 nM.
For `COCCN1CCC(n2nc3c(c2C)Nc2ncc(Cl)c(n2)N[C@H](C)CCO3)C(F)C1` (single isomer, unassigned) [E100] the value was not above 100 nM; for `COC1CNc2nc(ncc2Cl)Nc2c(nn(C3CCC(C)CC3)c2C)OC1` (single isomer, unassigned) [E255, 14-Chloro-10-methoxy-4-methyl-5-(4-methylcyclohexyl)-8-oxa-2,5,6,12,16,17-hexaazatricyclo [11.3.1.0^3,7] heptadeca-1(16),3,6,13(17),14-pentaene], not above 100 nM.
Take `CCOC(=O)C(C)(C)n1nc2c(c1C)Nc1ncc(Cl)c(n1)NC(C)CCO2` (single isomer, unassigned) [E38, Ethyl 2-{14-chloro-4,11-dimethyl-8-oxa-2,5,6,12,16,17-hexaazatricyclo [11.3.1.0^3,7]heptadeca-1(16),3,6,13(17),14-pentaen-5-yl}-2-methylpropanoate]: the IC50 was not above 100 nM.
For `COC1CCCC(n2nc3c(c2C)Nc2ncc(Cl)c(n2)NC(C)CCO3)C1` (single isomer, unassigned) [E170, 14-Chloro-5-(3-methoxycyclohexyl)-4,11-dimethyl-8-oxa-2,5,6,12,16,17-hexaazatricyclo[11.3.1.0^3,7] heptadeca-1(16),3,6,13(17),14-pentaene] the value was not above 100 nM.
On to `Cc1c2c(nn1C1CCCOC1)OCCCNc1nc(ncc1Cl)N2` (single isomer, unassigned) [E10, 14-Chloro-4-methyl-5-(oxan-3-yl)-8-oxa-2,5,6,12,16,17-hexaaza tricyclo-[11.3.1.0^3,7]heptadeca-1(16),3,6,13(17),14-pentaene], for which the 50% inhibitory concentration (IC50) was not above 100 nM.
For `N#Cc1c2c(nn1C1CCOCC1)OCCCNc1nc(ncc1Cl)N2` [E14, 14-Chloro-5-(oxan-4-yl)-8-oxa-2,5,6,12,16,17-hexaazatricyclo[11.3.1.0^3,7]heptadeca-1(16),3,6,13(17),14-pentaene-4-carbonitrile] the value was not above 100 nM; for `Cc1c2c(nn1C1CC(C)OC(C)C1)OCCCNc1nc(ncc1Cl)N2` (single isomer, unassigned) [E200, 14-Chloro-5-(2,6-dimethyloxan-4-yl)-4-methyl-8-oxa-2,5,6,12,16,17-hexaazatricyclo[11.3.1.0^3,7]heptadeca-1(16),3,6,13(17),14-pentaene], not above 100 nM; for `Cc1c2c(nn1C1CCOCC1)OCCCNc1cc(ncc1C(F)(F)F)N2` [E125, 4-Methyl-5-(oxan-4-yl)-14-(trifluoromethyl)-8-oxa-2,5,6,12,16-pentaazatricyclo[11.3.1.0^3,7]heptadeca-1(16),3,6,13(17),14-pentaene], not above 100 nM.
Regarding `Cc1c2c(nn1C1CCOC(C)C1)OCCCNc1nc(ncc1Cl)N2` (single isomer, unassigned) [E202, 14-Chloro-4-methyl-5-(2-methyloxan-4-yl)-8-oxa-2,5,6,12,16,17-hexaazatricyclo[11.3.1.0^3,7]heptadeca-1(16),3,6,13(17),14-pentaene], the IC50 was not above 100 nM.
For `Cc1c2c(nn1C1CCC(OC(F)F)CC1)OCC[C@@H](C)Nc1nc(ncc1Cl)N2` (stereo partly drawn) [E374, (11R)-14-Chloro-5-[4-(difluoromethoxy)cyclohexyl]-4,11-di methyl-8-oxa-2,5,6,12,16,17-hexaazatricyclo[11.3.1.0^3,7]hepta deca-1(16),3,6,13(17),14-pentaene] the value was not above 100 nM; for `Cc1[nH]nc2c1Nc1ncc(Cl)c(n1)NCC(C)CO2` (stereo not drawn) [E431, 14-Chloro-4,10-dimethyl-8-oxa-2,5,6,12,16,17-hexaazatricyclo[11.3.1.0^3,7]heptadeca-1(16),3,6,13(17),14-pentaene], not above 100 nM; for `Cc1c2c(nn1C1CCOC1)OCCCNc1nc(ncc1Cl)N2` (stereo not drawn) [E122, 14-Chloro-4-methyl-5-(oxolan-3-yl)-8-oxa-2,5,6,12,16,17-hexa azatricyclo[11.3.1.0^3,7]heptadeca-1(16),3,6,13(17),14-pentaene], not above 100 nM.
For `Cc1c2c(nn1C1CCCOC1)OCCCNc1nc(ncc1Cl)N2` (stereo not drawn) [E8, 14-Chloro-4-methyl-5-(oxan-3-yl)-8-oxa-2,5,6,12,16,17-hexaazatricyclo[11.3.1.0^3,7]heptadeca-1(16),3,6,13(17),14-pentaene] the value was not above 100 nM; for `N#Cc1cnc2nc1NCCCOc1nn(C3CCOCC3(F)F)c(Cl)c1N2` (stereo not drawn) [E438, 4-Chloro-5-(3,3-difluorooxan-4-yl)-8-oxa-2,5,6,12,16,17-hexaazatricyclo[11.3.1.0^3,7]heptadeca-1(16),3,6,13(17),14-pentaene-14-carbonitrile], not above 100 nM; for `COC1CNc2nc(ncc2Cl)Nc2c(nn(C3CCOCC3)c2Cl)OC1` (single isomer, unassigned) [E341, 4,14-Dichloro-10-methoxy-5-(oxan-4-yl)-8-oxa-2,5,6,12,16,17-hexaazatricyclo[11.3.1.0^3,7]heptadeca-1(16),3,6,13(17),14-pentaene], not above 100 nM.
With `Cc1c2c(nn1C1CCCOC1)OCCC(C)Nc1cc(ncc1Cl)N2` (single isomer, unassigned) [E346, 14-Chloro-4,11-dimethyl-5-(oxan-3-yl)-8-oxa-2,5,6,12,16-pentaazatricyclo[11.3.1.0^3,7]heptadeca-1(16),3,6,13 (17),14-pentaene], the IC50 is not above 100 nM.
For `Cc1c2c(nn1C1COCCC1F)OCC[C@@H](C)Nc1nc(ncc1Cl)N2` (single isomer, unassigned) [E325] the value was not above 100 nM; for `Cc1c2c(nn1C1CCOC(CO)C1)OCC[C@@H](C)Nc1nc(ncc1Cl)N2` (stereo partly drawn) [E331, {4-[(11R)-14-Chloro-4,11-dimethyl-8-oxa-2,5,6,12,16,17-hexaazatricyclo[11.3.1.0^3,7]heptadeca-1(16),3,6,13(17),14-pentaen-5-yl]oxan-2-yl}methanol], not above 100 nM; for `Cc1c2c(nn1C1CCOCC1)OCCC(C)Nc1cc(ncc1Cl)N2` (single isomer, unassigned) [E345, 14-Chloro-4,11-dimethyl-5-(oxan-4-yl)-8-oxa-2,5,6,12,16-pentaazatricyclo[11.3.1.0^3,7]heptadeca-1(16),3,6,13 (17),14-pentaene], not above 100 nM.
In the case of `Cc1c2c(nn1C1CCC(C(F)(F)F)CC1)OCCC(C)Nc1nc(ncc1Cl)N2` (single isomer, unassigned) [E281, 4-Chloro-4,11-dimethyl-5-[4-(trifluoromethyl)cyclohexyl]-8-oxa-2,5,6,12,16,17-hexaazatricyclo[11.3.1.0^3,7] heptadeca-1(16),3,6,13(17),14-pentaene], the concentration for half-maximal inhibition (IC50) was not above 100 nM.

Values taken from US20200392158A1, “INHIBITORS OF LEUCINE RICH REPEAT KINASE 2” (GLAXOSMITHKLINE INTELLECTUAL PROPERTY DEVELOPMENT LIMITED, priority 2017, published 2020).
